# According to ChEMBL document CHEMBL3045927, “Synthesis of 4-methyl-1,2,3-thiadiazole derivatives via Ugi reaction and their biological activities” (2010):
# Experiments:
# Type in all cases: functional
# [1] = tested on: Botryosphaeria berengeriana; assay: Fungicidal activity against Botryosphaeria berengeriana at 50 ug/ml by growth inhibition method; design: scale not given: the % may be the effect or the level left
# [2] = tested on: Tobacco mosaic virus; assay: In vitro antiviral activity against Tobacco mosaic virus (TMV) infected tobacco leaves at 100 ug/ml
# [3] = tested on: Tobacco mosaic virus; assay: In vivo antiviral activity against Tobacco mosaic virus (TMV) infected tobacco leaves assessed as protective effect at 500 ug/ml treated 12 hr before viral inoculation measured at 2-3 days after viral challenge
# [4] = tested on: Mycosphaerella arachidis; assay: Fungicidal activity against Mycosphaerella arachidis at 50 ug/ml by growth inhibition method; design: scale not given: the % may be the effect or the level left
# [5] = tested on: Tobacco mosaic virus; assay: In vivo antiviral activity against Tobacco mosaic virus (TMV) infected tobacco leaves assessed as protective effect at 100 ug/ml treated 12 hr before viral inoculation measured at 2-3 days after viral challenge
# [6] = tested on: Tobacco mosaic virus; assay: In vivo antiviral activity against Tobacco mosaic virus (TMV) infected tobacco leaves assessed as inactivation effect at 100 ug/ml co-treated with virus for 30 min before inoculation onto leaves measured at 2-3 days after viral challenge
# [7] = tested on: Nicotiana tabacum; assay: Induction of systemic acquired resistance activity in TMV infected-Nicotiana tabacum (tobacco) leaves at 50 ug/ml
# [8] = tested on: Fusarium graminearum; assay: Fungicidal activity against Fusarium graminearum at 50 ug/ml by growth inhibition method; design: scale not given: the % may be the effect or the level left
# [9] = tested on: Alternaria solani; assay: Fungicidal activity against Alternaria solani at 50 ug/ml by growth inhibition method; design: scale not given: the % may be the effect or the level left
# [10] = tested on: Tobacco mosaic virus; assay: In vitro antiviral activity against Tobacco mosaic virus (TMV) infected tobacco leaves at 500 ug/ml
# [11] = tested on: Thanatephorus cucumeris; assay: Fungicidal activity against Thanatephorus cucumeris at 50 ug/ml by growth inhibition method; design: scale not given: the % may be the effect or the level left
# [12] = tested on: Pyricularia grisea; assay: Fungicidal activity against Magnaporthe grisea at 50 ug/ml by growth inhibition method; design: scale not given: the % may be the effect or the level left
# [13] = tested on: Phytophthora infestans; assay: Fungicidal activity against Phytophthora infestans at 50 ug/ml by growth inhibition method; design: scale not given: the % may be the effect or the level left
# [14] = tested on: Tobacco mosaic virus; assay: In vivo antiviral activity against Tobacco mosaic virus (TMV) infected tobacco leaves assessed as curative effect at 500 ug/ml treated after viral inoculation measured at 2-3 days after viral challenge
# [15] = tested on: Colletotrichum lagenaria; assay: Fungicidal activity against Colletotrichum lagenaria at 50 ug/ml by growth inhibition method; design: scale not given: the % may be the effect or the level left
# [16] = tested on: Tobacco mosaic virus; assay: In vivo antiviral activity against Tobacco mosaic virus (TMV) infected tobacco leaves assessed as curative effect at 100 ug/ml treated after viral inoculation measured at 2-3 days after viral challenge
# [17] = tested on: Nicotiana tabacum; assay: Induction of systemic acquired resistance activity in TMV infected-Nicotiana tabacum (tobacco) leaves at 100 ug/ml
# [18] = tested on: Rhizoctonia solani; assay: Fungicidal activity against Rhizoctonia solani at 50 ug/ml by growth inhibition method; design: scale not given: the % may be the effect or the level left
# [19] = tested on: Cercospora beticola; assay: Fungicidal activity against Cercospora beticola at 50 ug/ml by growth inhibition method; design: scale not given: the % may be the effect or the level left
# [20] = tested on: Tobacco mosaic virus; assay: In vivo antiviral activity against Tobacco mosaic virus (TMV) infected tobacco leaves assessed as inactivation effect at 500 ug/ml co-treated with virus for 30 min before inoculation onto leaves measured at 2-3 days after viral challenge
# [21] = tested on: Fusarium oxysporum; assay: Fungicidal activity against Fusarium oxysporum at 50 ug/ml by growth inhibition method; design: scale not given: the % may be the effect or the level left
SMILES,Activity [1],inhibition at 100 µg/mL [2],Activity [3],Activity [4],Activity [5],Activity [6],Activity [7],Activity [8],Activity [9],inhibition at 500 µg/mL [10],Activity [11],Activity [12],Activity [13],Activity [14],Activity [15],Activity [16],Activity [17],Activity [18],Activity [19],Activity [20],also measured
Cc1ccc(N(C(=O)c2snnc2C)C(C(=O)NC2CCCCC2)c2ccc([N+](=O)[O-])cc2)cc1F (stereo unspecified),0%,26%,38%,14%,18%,48%,36%,34%,0%,39%,0%,0%,16%,59%,0%,36%,68%,40%,17%,57%,
Cc1ccc(N(C(=O)c2snnc2C)C(C(=O)NC2CCCCC2)c2ccccc2)cc1F (stereo unspecified),0%,19%,49%,21%,41%,11%,69%,45%,0%,19%,0%,14%,5%,81%,14%,47%,54%,28%,33%,29%,
Cc1ccc(N(C(=O)c2snnc2C)C(C(=O)NC2CCCCC2)c2cccc(Cl)c2)cc1Cl (stereo unspecified),26%,21%,,39%,,,,,21%,29%,12%,20%,21%,,9%,,,65%,18%,,Activity [21]: 11%
Cc1ccc(C(C(=O)NC2CCCCC2)N(C(=O)c2snnc2C)c2ccc(C)c(Cl)c2)cc1 (stereo unspecified),26%,25%,,35%,,,,,42%,40%,24%,50%,26%,,18%,,,69%,27%,,Activity [21]: 18%
Cc1ccc(N(C(=O)c2snnc2C)C(C(=O)NC2CCCCC2)c2ccc(O)cc2)cc1Cl (stereo unspecified),31%,14%,,53%,,,,,50%,17%,37%,41%,32%,,8%,,,46%,33%,,Activity [21]: 38%
Cc1ccc(N(C(=O)c2snnc2C)C(C(=O)NC2CCCCC2)c2cccc(C(F)(F)F)c2)cc1F (stereo unspecified),85%,29%,54%,71%,19%,21%,68%,62%,100%,67%,74%,14%,88%,42%,95%,28%,38%,97%,0%,31%,
Cc1ccc(N(C(=O)c2snnc2C)C(C(=O)NC2CCCCC2)c2ccccc2C)cc1F (stereo unspecified),53%,23%,35%,79%,23%,27%,63%,34%,44%,52%,16%,57%,47%,47%,43%,18%,58%,51%,67%,60%,
Cc1ccc(N(C(=O)c2snnc2C)C(C(=O)NC2CCCCC2)c2cccc([N+](=O)[O-])c2)cc1F (stereo unspecified),32%,44%,55%,57%,27%,48%,50%,28%,0%,58%,45%,14%,11%,56%,10%,39%,68%,30%,33%,62%,
